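In this assay, cells in 96-well plates receive the compound at five concentrations for 48 hours. Endpoints are linearly interpolated between the surrounding concentrations. GI50: concentration for 50% inhibition of growth.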 Active and inactive are the calls of the source. Rule as the data show it: active = GI50 up to about 1.1 µM and inactive = higher.
Columns and labels:
Assay in all cases: NCI tumour cell line growth inhibition, 48 h
SF-295 = test system: SF-295
MDA-MB-231 = test system: MDA-MB-231
UACC-62 = test system: UACC-62
NCI-H522 = test system: NCI-H522
SK-MEL-5 = test system: SK-MEL-5
T47D = test system: T47D
OVCAR-3 = test system: OVCAR-3
HT-29 = test system: HT-29
SR = test system: SR
HCC 2998 = test system: HCC 2998
UACC-257 = test system: UACC-257
SF-539 = test system: SF-539
M14 = test system: M14
OVCAR-4 = test system: OVCAR-4
EKVX = test system: EKVX
UO-31 = test system: UO-31
U-251 = test system: U-251
MDA-N = test system: MDA-N
HCT-116 = test system: HCT-116

Measured: GI50

CC1(C)OC[C@@H](/C=C\CCO[Si](c2ccccc2)(c2ccccc2)C(C)(C)C)N1C(=O)c1ccccc1
inactive: SF-295 13.1 µM | MDA-MB-231 10.9 µM | UACC-62 9.91 µM | NCI-H522 3.61 µM | SK-MEL-5 2.51 µM | T47D 4.06 µM | OVCAR-3 7.5 µM | HT-29 4.14 µM | SR 2.79 µM | HCC 2998 7.46 µM | UACC-257 3.49 µM | SF-539 18.3 µM | M14 7.08 µM | OVCAR-4 7.76 µM | EKVX 5.75 µM | UO-31 11.9 µM | U-251 12.7 µM | MDA-N 15.8 µM | HCT-116 3.41 µM

Cc1nc(Nc2ccccc2Cl)sc1C(=O)CC(=O)C(=O)Nc1c(Cl)cccc1Cl
inactive: SF-295 27.5 µM | MDA-MB-231 13.6 µM | UACC-62 45.6 µM | NCI-H522 19.3 µM | SK-MEL-5 31.7 µM | T47D 22.8 µM | OVCAR-3 17.4 µM | HT-29 25.4 µM | SR 31.2 µM | HCC 2998 39.5 µM | UACC-257 44.4 µM | SF-539 26.9 µM | M14 29.9 µM | OVCAR-4 49.1 µM | EKVX 17.9 µM | UO-31 23 µM | U-251 24.9 µM | MDA-N 40 µM | HCT-116 18.8 µM

O=C(/C(=C/c1cccs1)c1ccccc1)c1ccccc1
inactive: SF-295 > 100 µM | MDA-MB-231 23.4 µM | UACC-62 > 100 µM | NCI-H522 53.7 µM | SK-MEL-5 > 100 µM | T47D > 100 µM | OVCAR-3 > 100 µM | HT-29 53.2 µM | SR 34.3 µM | HCC 2998 > 100 µM | UACC-257 > 100 µM | SF-539 17.5 µM | M14 > 100 µM | OVCAR-4 35.2 µM | EKVX > 100 µM | UO-31 > 100 µM | U-251 77.1 µM | MDA-N > 100 µM | HCT-116 > 100 µM

O=C1/C(=C/c2ccc([N+](=O)[O-])cc2)C(=O)N(c2ccccc2)C1c1ccccc1 (stereo unspecified)
inactive: SF-295 > 10 µM | MDA-MB-231 > 10 µM | UACC-62 > 10 µM | NCI-H522 > 10 µM | SK-MEL-5 > 10 µM | T47D > 10 µM | OVCAR-3 > 10 µM | HT-29 > 10 µM | SR > 10 µM | HCC 2998 > 10 µM | UACC-257 > 10 µM | SF-539 > 10 µM | M14 > 10 µM | OVCAR-4 > 10 µM | EKVX > 10 µM | UO-31 > 10 µM | U-251 > 10 µM | MDA-N > 10 µM | HCT-116 > 10 µM
